# Laboratory results published in US4818770A, “Prevention of a plant disease by specific inhibition of fungal polyamine biosynthesis” (priority 1986, dated 1989).
# Values joined by “and” are separate entries in the source; they are usually repeats but may differ in a detail not shown here. Equal entries are not always repeated. Where two headings read alike, the source gives them in different places.
# Tests used:
# PA titers of bean leaves = experiment: Polyamine titers in leaves of sprayed bean plants; assay type: in vivo, Phaseolus vulgaris; conditions: for PA levels in treated leaves: sprays 0.01, 0.1 and 1.0 mM, 1, 3 and 8 days later
# Procedure: PA analysis was performed on leaf samples collected from inhibitor-sprayed bean plants. Leaf samples were ground in prechilled mortars with 10% (w/v) HClO4 at a ratio of 200 mg fresh weight leaf per ml HClO4. Homogenates were centrifuged at 26,00 g for 20 minutes at 4° C. The clear supernatant fractions were used for dansylation according to a procedure previously described. Briefly, 0.4 ml of freshly prepared dansyl (Diaminonaphthylsulfonyl)-C1 (Sigma), 5 mg/ml in acetone, and 0.2 ml of saturated Na2 CO3 were added to 0.2 ml of the supernatant fraction. The dansylated PA were extracted with 0.25 ml benzene and the clear benzene layer was used for PA determinations by TLC on LK6D high resolution silica gel plates (Whatman). After development in chloroform:triethylamine (25:2 v/v) for about 1 hour and location by fluorescence under a UV lamp, the dansylpolyamine bands were scraped off, eluted in 4 ml of ethyl acetate and quantified with an Aminco-Bowman fluorimeter.
# The effect of DFMO and DFMA sprays (0.01, 0.1, and 1.0 mM) on PA titers was also examined. Unifoliolate leaves were sprayed in the usual way and examined 1 and 3 days later, while the first trifolioloate leaves, unexpanded ata the time of spray and themselves unsprayed, were examined 8 days later.
# [1] = system: P. graminis f. sp. tritici; assay type: in vivo, Puccinia graminis f. sp. tritici
# U. phaseoli [2] = experiment: Bean rust severity after DFMO and polyamines alone or combined; assay type: in vivo, Uromyces phaseoli
# [3] = Tabor et al. (1985); cited from earlier work
# Uromyces phaseoli [4] = experiment: Translocation of protective effect in partially treated unifoliolate bean leaves; assay type: in vivo; conditions: for Lesions per cm^2, treated side / Lesions per cm^2, untreated side / Lesions per half leaf, treated side / Lesions per half leaf, untreated side: 1.0 mM on one longitudinal half leaf
# U. phaseoli uredospores = experiment: Uredospore germination on the surface of the unifoliolate bean leaf; assay type: in vivo, Uromyces phaseoli; conditions: sprayed 1 day before inoculation
# tomato plants = experiment: Effect on growth of uninoculated tomato plants; assay type: in vivo, Lycoperisicon esculentum; conditions: concentrations up to 20 mM; 28-day observation period
# U. phaseoli [5] = experiment: Kinetics of bean rust inhibition by delayed postinoculation DFMO; assay type: in vivo, Uromyces phaseoli
# Uromyces phaseoli [6] = experiment: Bean rust lesions on reinoculated trifoliolate leaves; conditions: for Lesions per cm^2 / Lesions per leaflet: reinoculated trifoliolate leaves
# Excerpt: Trifoliolate leaves were reinoculated with pathogen after 1 week, before
# or after exposure to DFMO, to detect transfer of a protective effect to
# other parts of the plant.
# Puccinia sorghi = experiment: Infection by corn rust; assay type: in vivo
# arginase = target: T1, arginase (Verticillium dahliae, UniProt G2WV09); experiment: Arginase activity in mycelium extracts with DFMA as substrate; assay type: biochemical; conditions: mycelium of 12-day old cultures
# T1 construct: urea release from arginine or DFMA
# T1 sequence (G2WV09 1-327): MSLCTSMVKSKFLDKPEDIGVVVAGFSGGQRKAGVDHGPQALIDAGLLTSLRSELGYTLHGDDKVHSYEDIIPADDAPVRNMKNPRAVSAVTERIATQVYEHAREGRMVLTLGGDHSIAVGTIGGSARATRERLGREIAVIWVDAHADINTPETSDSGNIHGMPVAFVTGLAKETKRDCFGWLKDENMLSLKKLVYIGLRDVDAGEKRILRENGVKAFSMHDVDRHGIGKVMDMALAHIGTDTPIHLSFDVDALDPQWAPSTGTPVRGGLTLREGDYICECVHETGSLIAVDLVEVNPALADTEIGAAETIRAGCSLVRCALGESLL
# Procedure: Ornithine decarboxylase and ADCase activity determinations were carried out on 12-day-old mycelium of the fungus cultured on liquid Czapek-Dox medium containing 1% glucose as the carbon source.
# Ornithine decarboxylase and ADCase were assayed by the methods of Kaur-Sawhney et al. (4) using D,L-[1-14 C]ornithine and L-[U14 C]arginine as substrates for the respective enzymes. Arginase activity was determined by the methods of Schimke (9), using arginine and DFMA as substrates, and 1-phenyl-1,2-propanedione-2-oxime to detect the urea release by the enzyme. Controls for the arginase determinations were boiled mycelial extracts, and results were adjusted to compensate for readings obtained from substrate blanks. Protein determinations were by the […] method (1), using bovine serum albumin as a reference standard. Difluoromethylornithine and DFMA are products of Merrell-Dow, and are available from them. All other reagents were from Sigma Biochemicals. All experiments were replicated 3 times and repeated twice. Variaions within experiments were generally less than 5%.
# [7] = DFMO 0.05 mM alone, postinoculation
# [8] = 1.0 mM DFMO sprayed 1 d after spore inoculation
# [9] = 1.0 mM DFMO sprayed 2 d after spore inoculation
# [10] = 1.0 mM DFMO sprayed 3 d after spore inoculation
# [11] = 1.0 mM DFMO sprayed 4 d after spore inoculation
# [12] = 1.0 mM DFMO sprayed 5 d after spore inoculation
# [13] = postinoculation exposure, DFMO 0.05 mM
# [14] = postinoculation exposure, DFMO 0.1 mM
# [15] = postinoculation exposure, DFMO 0.5 mM
# [16] = postinoculation exposure, DFMO 1.0 mM
# [17] = postinoculation exposure, DFMO 5.0 mM
# [18] = preinoculation exposure, DFMO 0.05 mM
# [19] = preinoculation exposure, DFMO 0.1 mM
# [20] = preinoculation exposure, DFMO 0.5 mM
# [21] = preinoculation exposure, DFMO 1.0 mM
# [22] = preinoculation exposure, DFMO 5.0 mM
smiles,measurement,setting,value
"NCCCC(N)(C(=O)O)C(F)F (racemic) [DFMO, DL-alpha-difluorimethylornithine]",Put and Spd titers,PA titers of bean leaves; highest concentration of DFMO,increased
same,PA levels in treated leaves,PA titers of bean leaves,no significant reductions
same,% control,"[1]; post-inoculation, 0.01 mM",36%
same,Uredia/plant,"[1]; post-inoculation, 0.01 mM",134 Uredia/plant
same,% control,"[1]; post-inoculation, 0.025 mM",44%
same,Uredia/plant,"[1]; post-inoculation, 0.025 mM",117 Uredia/plant
same,% control,"[1]; post-inoculation, 0.065 mM",55%
same,Uredia/plant,"[1]; post-inoculation, 0.065 mM",94 Uredia/plant
same,% control,"[1]; post-inoculation, 0.10 mM",76%
same,Uredia/plant,"[1]; post-inoculation, 0.10 mM",51 Uredia/plant
same,% control,"[1]; post-inoculation, 0.13 mM",77%
same,Uredia/plant,"[1]; post-inoculation, 0.13 mM",49 Uredia/plant
same,% control,"[1]; post-inoculation, 0.16 mM",81%
same,Uredia/plant,"[1]; post-inoculation, 0.16 mM",40 Uredia/plant
same,% control,"[1]; post-inoculation, 0.20 mM",82%
same,Uredia/plant,"[1]; post-inoculation, 0.20 mM",37 Uredia/plant
same,% control,"[1]; post-inoculation, 1.00 mM",92%
same,Uredia/plant,"[1]; post-inoculation, 1.00 mM",17 Uredia/plant
same,"ED50, wheat stem rust",[1]; pre-inoculation treatment,560 µM
same,% control,"[1]; pre-inoculation, 0.01 mM",8%
same,Uredia/plant,"[1]; pre-inoculation, 0.01 mM",194 Uredia/plant
same,% control,"[1]; pre-inoculation, 0.025 mM",17%
same,Uredia/plant,"[1]; pre-inoculation, 0.025 mM",175 Uredia/plant
same,% control,"[1]; pre-inoculation, 0.065 mM",13%
same,Uredia/plant,"[1]; pre-inoculation, 0.065 mM",182 Uredia/plant
same,% control,"[1]; pre-inoculation, 0.10 mM",13%
same,Uredia/plant,"[1]; pre-inoculation, 0.10 mM",183 Uredia/plant
same,% control,"[1]; pre-inoculation, 0.13 mM",19%
same,Uredia/plant,"[1]; pre-inoculation, 0.13 mM",170 Uredia/plant
same,% control,"[1]; pre-inoculation, 0.16 mM",32%
same,Uredia/plant,"[1]; pre-inoculation, 0.16 mM",143 Uredia/plant
same,% control,"[1]; pre-inoculation, 0.20 mM",32%
same,Uredia/plant,"[1]; pre-inoculation, 0.20 mM",143 Uredia/plant
same,% control,"[1]; pre-inoculation, 1.00 mM",57%
same,Uredia/plant,"[1]; pre-inoculation, 1.00 mM",91 Uredia/plant
same,reduction of number of lesions,U. phaseoli [2]; 0.05 mM DFMO alone,70%
same,Lesions per cm^2,U. phaseoli [2]; [7],22 ± 4 per cm^2
same,Lesions per leaf,U. phaseoli [2]; [7],1223 ± 268 per leaf
same,"Lesions per leaf, percent of control",U. phaseoli [2]; [7],30% of control
same,inhibition at 50 µM,"U. phaseoli [2]; Uromyces phaseoli, 0.05 mM DFMO, read-out: inhibition of uredial development",~50%
same,toxicity,[3],low toxicity
same,protection of the untreated half of the leaf,Uromyces phaseoli [4]; petiolar or apical half treated with 1 mM DFMO,the other half was also protected against infection
same,"Lesions per cm^2, treated side",Uromyces phaseoli [4]; postinoculation exposure,0 per cm^2
same,"Lesions per cm^2, untreated side",Uromyces phaseoli [4]; postinoculation exposure,0 per cm^2
same,"Lesions per half leaf, treated side",Uromyces phaseoli [4]; postinoculation exposure,0 per half leaf
same,"Lesions per half leaf, untreated side",Uromyces phaseoli [4]; postinoculation exposure,0 per half leaf
same,"Lesions per cm^2, treated side",Uromyces phaseoli [4]; preinoculation exposure,0 per cm^2
same,"Lesions per cm^2, untreated side",Uromyces phaseoli [4]; preinoculation exposure,22 ± 4 per cm^2
same,"Lesions per half leaf, treated side",Uromyces phaseoli [4]; preinoculation exposure,0 per half leaf
same,"Lesions per half leaf, untreated side",Uromyces phaseoli [4]; preinoculation exposure,617 ± 112 per half leaf
same,spore germination on leaf surface,U. phaseoli uredospores; lower concentrations of DFMO,partially inhibited
same,spore germination on leaf surface,U. phaseoli uredospores; more than 0.5 mM DFMO,completely inhibited
same,growth and development of uninoculated tomato plants,tomato plants,no apparent effects on the growth and development of the plants
same,Lesions per cm^2,U. phaseoli [5]; [8],0 per cm^2
same,Lesions per leaf,U. phaseoli [5]; [8],0 per leaf
same,Lesions per cm^2,U. phaseoli [5]; [9],0 per cm^2
same,Lesions per leaf,U. phaseoli [5]; [9],0 per leaf
same,Lesions per cm^2,U. phaseoli [5]; [10],0 per cm^2
same,Lesions per leaf,U. phaseoli [5]; [10],0 per leaf
same,Lesions per cm^2,U. phaseoli [5]; [11],41 ± 5 per cm^2
same,Lesions per leaf,U. phaseoli [5]; [11],2330 ± 211 per leaf
same,Lesions per cm^2,U. phaseoli [5]; [12],53 ± 4 per cm^2
same,Lesions per leaf,U. phaseoli [5]; [12],3278 ± 326 per leaf
same,protection of newly emerged trifoliolate leaves,"Uromyces phaseoli [6]; 5.0 mM DFMO, reinoculated after 1 week",complete protection
same,Lesions per cm^2,Uromyces phaseoli [6]; [13],59 ± 1 per cm^2
same,Lesions per leaflet,Uromyces phaseoli [6]; [13],1246 ± 73 per leaflet
same,Lesions per cm^2,Uromyces phaseoli [6]; [14],58 ± 4 per cm^2
same,Lesions per leaflet,Uromyces phaseoli [6]; [14],1289 ± 131 per leaflet
same,Lesions per cm^2,Uromyces phaseoli [6]; [15],41 ± 4 per cm^2
same,Lesions per leaflet,Uromyces phaseoli [6]; [15],982 ± 84 per leaflet
same,Lesions per cm^2,Uromyces phaseoli [6]; [16],22 ± 2 per cm^2
same,Lesions per leaflet,Uromyces phaseoli [6]; [16],422 ± 13 per leaflet
same,Lesions per cm^2,Uromyces phaseoli [6]; [17],0 per cm^2
same,Lesions per leaflet,Uromyces phaseoli [6]; [17],0 per leaflet
same,Lesions per cm^2,Uromyces phaseoli [6]; [18],64 ± 5 per cm^2
same,Lesions per leaflet,Uromyces phaseoli [6]; [18],1458 ± 92 per leaflet
same,Lesions per cm^2,Uromyces phaseoli [6]; [19],55 ± 3 per cm^2
same,Lesions per leaflet,Uromyces phaseoli [6]; [19],1274 ± 120 per leaflet
same,Lesions per cm^2,Uromyces phaseoli [6]; [20],39 ± 7 per cm^2
same,Lesions per leaflet,Uromyces phaseoli [6]; [20],1172 ± 158 per leaflet
same,Lesions per cm^2,Uromyces phaseoli [6]; [21],16 ± 2 per cm^2
same,Lesions per leaflet,Uromyces phaseoli [6]; [21],320 ± 22 per leaflet
same,Lesions per cm^2,Uromyces phaseoli [6]; [22],0 per cm^2
same,Lesions per leaflet,Uromyces phaseoli [6]; [22],0 per leaflet
same,Percent control,Puccinia sorghi; 0.01 mM,43.5%
same,Percent control,Puccinia sorghi; 0.025 mM,38.4%
same,Percent control,Puccinia sorghi; 0.065 mM,37.4%
same,Percent control,Puccinia sorghi; 0.10 mM,63.1%
same,Percent control,Puccinia sorghi; 0.13 mM,67.7%
same,Percent control,Puccinia sorghi; 0.16 mM,88.7% and ~90%
same,Percent control,Puccinia sorghi; 0.20 mM,88.4%
same,Percent control,Puccinia sorghi; 1.00 mM,94.9%
same,EC50,"Puccinia sorghi; Puccinia sorghi, read-out: concentration providing 50% protection against corn rust",< 100 µM
"N=C(N)NCCC[C@](N)(C(=O)O)C(F)F [DFMA, alpha-difluoromethylarginine]",arginase activity with DFMA as substrate,arginase; isolate TS-1B,7.1 pM urea/hr/mg protein
same,arginase activity with DFMA as substrate,arginase; isolate TS-2B,11.3 pM urea/hr/mg protein
same,PA levels in treated leaves,PA titers of bean leaves,no significant reductions
same,control of wheat stem rust,[1]; 0.01 to 1.0 mM,relatively ineffective
same,% control,"[1]; post-inoculation, 0.01 mM",27%
same,Uredia/plant,"[1]; post-inoculation, 0.01 mM",154 Uredia/plant
same,% control,"[1]; post-inoculation, 0.025 mM",36%
same,Uredia/plant,"[1]; post-inoculation, 0.025 mM",134 Uredia/plant
same,% control,"[1]; post-inoculation, 0.065 mM",29%
same,Uredia/plant,"[1]; post-inoculation, 0.065 mM",150 Uredia/plant
same,% control,"[1]; post-inoculation, 0.10 mM",28%
same,Uredia/plant,"[1]; post-inoculation, 0.10 mM",152 Uredia/plant
same,% control,"[1]; post-inoculation, 0.13 mM",42%
same,Uredia/plant,"[1]; post-inoculation, 0.13 mM",122 Uredia/plant
same,% control,"[1]; post-inoculation, 0.16 mM",42%
same,Uredia/plant,"[1]; post-inoculation, 0.16 mM",122 Uredia/plant
same,% control,"[1]; post-inoculation, 0.20 mM",41%
same,Uredia/plant,"[1]; post-inoculation, 0.20 mM",124 Uredia/plant
same,% control,"[1]; post-inoculation, 1.00 mM",40%
same,Uredia/plant,"[1]; post-inoculation, 1.00 mM",126 Uredia/plant
same,% control,"[1]; pre-inoculation, 0.01 mM",9%
same,Uredia/plant,"[1]; pre-inoculation, 0.01 mM",192 Uredia/plant
same,% control,"[1]; pre-inoculation, 0.025 mM",20%
same,Uredia/plant,"[1]; pre-inoculation, 0.025 mM",167 Uredia/plant
same,% control,"[1]; pre-inoculation, 0.065 mM",20%
same,Uredia/plant,"[1]; pre-inoculation, 0.065 mM",168 Uredia/plant
same,% control,"[1]; pre-inoculation, 0.10 mM",21%
same,Uredia/plant,"[1]; pre-inoculation, 0.10 mM",165 Uredia/plant
same,% control,"[1]; pre-inoculation, 0.13 mM",8%
same,Uredia/plant,"[1]; pre-inoculation, 0.13 mM",193 Uredia/plant
same,% control,"[1]; pre-inoculation, 0.16 mM",11%
same,Uredia/plant,"[1]; pre-inoculation, 0.16 mM",186 Uredia/plant
same,% control,"[1]; pre-inoculation, 0.20 mM",18%
same,Uredia/plant,"[1]; pre-inoculation, 0.20 mM",172 Uredia/plant
same,% control,"[1]; pre-inoculation, 1.00 mM",30%
same,Uredia/plant,"[1]; pre-inoculation, 1.00 mM",148 Uredia/plant
same,Percent control,Puccinia sorghi; 0.01 mM,13.0%
same,Percent control,Puccinia sorghi; 0.025 mM,7.2%
same,Percent control,Puccinia sorghi; 0.065 mM,0.0%
same,Percent control,Puccinia sorghi; 0.10 mM,0.0%
same,Percent control,Puccinia sorghi; 0.13 mM,9.3%
same,Percent control,Puccinia sorghi; 0.16 mM,27.1%
same,Percent control,Puccinia sorghi; 0.20 mM,14.0%
same,control of corn rust,Puccinia sorghi; up to 0.20 mM,essentially ineffective
